Test results reported in patent publication US20260193242A1, “USEFUL COMPOUNDS FOR MODULATING INFLAMMATION” (FLAGSHIP PIONEERING INNOVATIONS VI, LLC, priority 2022, published 2026).

Key:
[1] = tested on: R848-driven IRF reporter (Lucia luciferase, ISG54 promoter/IFN-stimulated response elements) in THP-1 cells; experiment: TLR7/8 (R848) stimulated interferon response element reporter gene assay in THP1-Dual cells; type: cell-based; details: Homo sapiens, THP-1, 10 μM compound, 1 μM R848, THP1-Dual cells; read-out: R848-driven IRF reporter gene assay (Percent inhibition at 10 μM)
Protocol: (§1) Compounds described herein are added to the human leukemic monocyte-like cell line THP-1 for bioactivity assessment. THP1-Dual cells (InvivoGen, San Diego, CA) feature the Lucia gene, a secreted luciferase reporter gene, under the control of an ISG54 minimal promoter in conjunction with five IFN-stimulated response elements. THP1-Dual cells also express a secreted embryonic alkaline phosphatase (SEAP) reporter gene driven by an IFN-β minimal promoter fused to five copies of the NF-κB consensus transcriptional response element and three copies of the c-Rel binding site. As a result, THP1-Dual cells allow the simultaneous study of the NF-κB pathway, by monitoring the activity of SEAP, and the IRF pathway, by assessing the activity of Lucia luciferase.
(§2) THP-1 dual reporter cells were grown in RPMI 1640 culture medium with 2 mM L-glutamine, 25 mM HEPES, 10% heat-inactivated fetal bovine serum, 100 μg/ml Normocin antibiotic (InvivoGen), Pen-Strep antibiotic (100 U/ml-100 μg/ml, InvivoGen). On the day of the assay, cells were seeded in a 384 flat-bottom well plate at 25,000 cells/well and incubated for 2 hours. Cells were then incubated with 10 μM of the compounds described herein or with 1 μM of IKK-16 (Selleck), a potent inhibitor of IκB kinases (IKKs) or with DMSO (vehicle control) for 2 hours, followed by the addition of the synthetic TLR7/8 agonist R848 at 1 μM and incubation for 16 hours. After incubation was concluded, the cultures supernatants were collected and IRF related activity was assessed by measurement of the Lucia luciferase, using Quanti-Luc assay (InvivoGen). NF-κB pathway activity was assessed by quantifying SEAP using Quanti-Blue assay (InvivoGen).

[2] = tested on: R848-driven NFκB reporter (SEAP) in THP-1 cells; experiment: TLR7/8 (R848) stimulated NFκB reporter gene assay in THP1-Dual cells; type: cell-based; details: Homo sapiens, THP-1, 10 μM compound, 1 μM R848, THP1-Dual cells; read-out: R848-driven NFκB reporter gene assay (Percent inhibition at 10 μM)
Protocol: as §1, §2

[3] = tested on: TNBS-induced colitis, Balb/c mice; experiment: TNBS-induced model of colitis in mice, dosing from day 2, therapeutic mode; type: in vivo; details: for IL-1B in plasma / IL-6 in plasma: dosing from day 2, vs Vehicle group
Protocol: (§3) Female Balb/c mice aged 8 weeks and weighing 18-20 g were housed under standard conditions. The mice were divided into groups with 8-10 mice in each group by body weight. Mice in sham group received intracolonic injection with 50% ethanol (0.1 mL) at day 0, whereas mice in other Trinitrobenzene sulfonic acid (TNBS) colitis model groups received intracolonic injection of 2% TNBS solution in ethanol (0.1 mL) at day 0. The reference compound Mesalazine (Selleck) and test articles described here were dosed from day-1 to day 6. Day 6 was the endpoint, and samples were immediately harvested for the last endpoint. Mesalazine was dissolved in distilled water (pH 7.0) and test articles were dissolved in Phosal 50 PG for delivery by oral gavage.
(§4) Body weight and Disease Activity Index (DAI) scores were recorded daily to assess the colitis. DAI score was the sum of the weight loss score, stool score and bleeding sub-scores. A blinded scoring system was employed to assess the colitis. The DAI scorer blinded to the group information and animal ID was responsible for the stool consistency and bleeding evaluations. If there was no blood visible with naked eyes, the Fecal occult blood (FOB) test was performed with a fecal occult blood test strip (the improved pyramidon method).
(§5) Colon tissue morphology, damage and healing were assessed by histopathology. The colons were harvested, mesentery and adipose tissue were carefully removed, and internal contents were removed by rinsing with cold PBS. The colons were Swiss-rolled and fixed in neutralized paraformaldehyde followed by H&E staining. Clinical pathologists reviewed the H&E staining and scored blinded with animal ID. The pathological scoring standards were: crypt architecture (normal, 0-severe crypt distortion with loss of entire crypts, 3), degree of inflammatory cell infiltration (normal, 0-dense inflammatory infiltrate, 3), muscle thickening (base of crypt sits on the muscularis mucosae, 0-marked muscle thickening present, 3), goblet cell depletion (absent, 0-present, 1) and crypt abscess (absent, 0-present, 1).
(§6) The data was compared by ANOVA with post-hoc Dunnett's multiple comparisons test using Graph Pad Prism 7.0 software (San Diego, CA, USA). P-value<0.05 was considered as statistically significant difference. For pairwise comparison of histology scores and cytokines, unpaired t-test was used to calculate statistical significance. Data was expressed as mean±standard error of mean. In figures, statistical significance is denoted by asterisks: *p<0.05 **p<0.01 ***p<0.005, ****p<0.0001.
Procedures were identical to those in Example 26, except that dosing of the compounds described herein, as well as the positive control mesalamine, began on the second day after TNBS administration, as diagrammed in FIG. 18. Animals in this scenario have developed colitis symptoms before administration of test articles. This is more similar to the clinical scenario with patients with inflammatory bowel disorder presenting with symptoms. For this reason, we refer to these conditions as “therapeutic mode”.

[4] = tested on: TNBS-induced colitis, Balb/c mice; experiment: TNBS-induced model of colitis in mice, dosing from day -1, prophylactic mode; type: in vivo; details: for IL-1ß in plasma / IL-6 in plasma: vs Vehicle group; for pathological score (crypt structure failure, inflammatory cell infiltration): H&E colon
Protocol: as §3
As noted, dosing of the compounds described herein, as well as the positive control mesalamine, began one day before TNBS administration. Animals in this scenario have not yet developed colitis symptoms before administration of test articles. For this reason, we refer to these conditions as “prophylactic mode”.
as §4, §5
The plasma was collected at Day-1 for PK and cytokine (IL-1ß and IL-6) analysis by mandibular venipuncture.
as §6

[5] = tested on: LPS induced septic shock, C57/B6L mice; experiment: LPS induced septic shock model in mice; type: in vivo
Protocol: In the LPS induced septic shock model in mice, the TLR4 agonist LPS is injected into the peritoneal cavity of mice, inducing production of pro-inflammatory cytokines that can be measured in blood two hours later (FIG. 2).
Female C57/B6L mice, 5 mice in each group, were injected with LPS (1 mg/kg) to induce septic shock 30 minutes after oral administration of compounds described herein (formulated in Phosal 50) or the controls dexamethasone (formulated in saline), a corticosteroid, and MCC950 (formulated in 0.5% methylcellulose), an inflammasome inhibitor. The mice were euthanized 2 hours after LPS stimulation, and the whole blood was drawn, processed to plasma, and snap frozen. Cytokine levels in plasma were determined by cytometric bead array assay.

[6] = 30 mg/kg PO, QD, dosing from day 2
[7] = 30 mg/kg PO in Phosal 50, 30 min before LPS 1 mg/kg, plasma 2 hours after LPS, vs vehicle

**Q.** `CN1[C@@H](C(=O)O)CC[C@@H]1[C@@H]1COC(c2ccccc2O)=N1` [Compound I-1, (2R,5R)-5-((R)-2-(2-hydroxyphenyl)-4,5-dihydrooxazol-4-yl)-1-methylpyrrolidine-2-carboxylic acid] was tested. Which inhibition at 10 µM [1] did it give?
**A.** 20%

**Q.** And the inhibition at 10 µM [2]?
**A.** 10%

**Q.** Which results are given for `CN1[C@@H](C(=O)O)CC[C@H]1[C@@H]1COC(c2ccccc2O)=N1` [Compound I-2, (2R,5S)-5-((R)-2-(2-hydroxyphenyl)-4,5-dihydrooxazol-4-yl)-1-methylpyrrolidine-2-carboxylic acid]?
**A.** inhibition at 10 µM [1]: 31%; inhibition at 10 µM [2]: 5%

**Q.** Which “Disease Activity Index (DAI) scores” value [3, 6] does the source give for `CN1[C@@H](C(=O)O)CC[C@@H]1[C@@H]1CSC(c2ccccc2O)=N1` [Compound I-3, (2R,5R)-5-((R)-2-(2-hydroxyphenyl)-4,5-dihydrothiazol-4-yl)-1-methylpyrrolidine-2-carboxylic acid] here?
**A.** improvement

**Q.** What about the “body weight (% initial weight) recovery” value [3, 6] of the same compound?
**A.** faster recovery rate

**Q.** And the total histology scores [3, 6]?
**A.** lower

**Q.** And the IL-1B in plasma ([3]; 30 mg/kg PO, QD)?
**A.** decreased

**Q.** And the IL-6 in plasma ([3]; 30 mg/kg PO, QD)?
**A.** decreased

**Q.** And the “colon recovery and mucosal healing” value ([3]; therapeutic mode)?
**A.** promoted the colon recovery and mucosal healing

**Q.** What about the “body weight (% initial weight) recovery” value ([4]; 30 mg/kg, PO, QD, day -1 to day 6) of the same compound?
**A.** faster recovery rate

**Q.** And the total histology scores ([4]; 1, 3, 10 and 30 mg/kg PO, QD)?
**A.** lower

**Q.** And the “Disease Activity Index (DAI) scores” value ([4]; 1, 3, 10 and 30 mg/kg PO, QD, day -1 to day 6)?
**A.** dose-dependent improvement

**Q.** And the IL-1ß in plasma ([4]; 1, 3, 10 and 30 mg/kg PO, QD)?
**A.** decreased

**Q.** What about the IL-6 in plasma ([4]; 1, 3, 10 and 30 mg/kg PO, QD) of the same compound?
**A.** decreased

**Q.** And the “pathological score (crypt structure failure, inflammatory cell infiltration)” value ([4]; 1, 3, 10 and 30 mg/kg PO, QD)?
**A.** lower

**Q.** And the ED50 ([4]; Mus musculus, 144 h, PO, QD, day -1 to day 6, read-out: dose for half maximal effect or ED50 (DAI score at Day 6))?
**A.** 15 mg/kg

**Q.** And the “colon recovery and mucosal healing” value ([4]; in a dose-dependent manner, prophylactic mode)?
**A.** promoted the colon recovery and mucosal healing

**Q.** And the inhibition at 10 µM [1]?
**A.** ≥ 50%

**Q.** And the IFNγ in plasma [5, 7]?
**A.** statistically significant decreases

**Q.** And the IL-12p70 in plasma [5, 7]?
**A.** statistically significant decreases

**Q.** And the TNFα in plasma [5, 7]?
**A.** statistically significant decreases

**Q.** And the inhibition at 10 µM [2]?
**A.** 40%

**Q.** What does the source list for `CNC(=O)[C@H]1CC[C@@H]([C@@H]2CSC(c3ccccc3O)=N2)N1C` [Compound I-5, (2R,5S)-5-((R)-2-(2-hydroxyphenyl)-4,5-dihydrothiazol-4-yl)-N,1-dimethyl pyrrolidine-2-carboxamide]?
**A.** inhibition at 10 µM [1]: 17%; inhibition at 10 µM [2]: 27%

**Q.** Which results are given for `COCCOCCOc1ccc(C2=N[C@H]([C@@H]3CC[C@H](C(=O)O)N3C)CO2)c(O)c1` [Compound I-7, (2R,5S)-5-((R)-2-(2-hydroxy-4-(2-(2-methoxyethoxy)ethoxy)phenyl)-4,5-dihydrooxazol-4-yl)-1-methylpyrrolidine-2-carboxylic acid]?
**A.** inhibition at 10 µM [1]: ≥ 50%; inhibition at 10 µM [2]: 28%

**Q.** `COCCOCCOc1ccc(C2=N[C@H]([C@@H]3CC[C@H](C(=O)O)N3C)CS2)c(O)c1` [Compound I-8, (2R,5S)-5-((R)-2-(2-hydroxy-4-(2-(2-methoxyethoxy)ethoxy)phenyl)-4,5-dihydrothiazol-4-yl)-1-methylpyrrolidine-2-carboxylic acid] was tested. Which inhibition at 10 µM [1] did it give?
**A.** ≥ 50%

**Q.** And the inhibition at 10 µM [2]?
**A.** ≥ 50%

**Q.** Which results are given for `COCCOCCOc1ccc(C2=N[C@H]([C@H]3CC[C@H](C(=O)O)N3C)CS2)c(O)c1` [Compound I-10, (2R,5R)-5-((R)-2-(2-hydroxy-4-(2-(2-methoxyethoxy)ethoxy)phenyl)-4,5-dihydrothiazol-4-yl)-1-methylpyrrolidine-2-carboxylic acid]?
**A.** inhibition at 10 µM [1]: 3%; inhibition at 10 µM [2]: 14%

**Q.** What does the source list for `CN1[C@@H](C(=O)O)CC[C@@H]1[C@@H]1COC(c2ncccc2O)=N1` [Compound I-11, (2R,5R)-5-((R)-2-(3-hydroxypyridin-2-yl)-4,5-dihydrooxazol-4-yl)-1-methylpyrrolidine-2-carboxylic acid]?
**A.** inhibition at 10 µM [1]: 5%; inhibition at 10 µM [2]: 6%

**Q.** Which results are given for `Nc1ccc(O)c(C(=O)O)c1` [Mesalazine, reference compound]?
**A.** total histology scores ([3]; 100 mg/kg PO, QD, dosing from day 2): lower; body weight (% initial weight) recovery ([3]; 100 mg/kg, QD, dosing from day 2): faster recovery rate; IL-1B in plasma ([3]; 100 mg/kg, QD): decreased; IL-6 in plasma ([3]; 100 mg/kg, QD): decreased; total histology scores ([4]; 100 mg/kg PO, QD): lower; pathological score (crypt structure failure, inflammatory cell infiltration) ([4]; 100 mg/kg PO, QD): lower; body weight (% initial weight) recovery ([4]; 100 mg/kg, QD, day -1 to day 6): faster recovery rate; IL-1ß in plasma ([4]; 100 mg/kg, QD): decreased; IL-6 in plasma ([4]; 100 mg/kg, QD): decreased

**Q.** For `C[C@@H]1C[C@H]2[C@@H]3CCC4=CC(=O)C=C[C@]4(C)[C@@]3(F)[C@@H](O)C[C@]2(C)[C@@]1(O)C(=O)CO` [dexamethasone, reference compound], which “activity on plasma cytokines (positive control)” value ([5]; 1.5 mg/kg PO, formulated in saline) is on record?
**A.** active
